# Results taken from ChEMBL document CHEMBL2040548, “Anti-influenza virus activities of 4-substituted 2,4-dioxobutanoic acid inhibitors” (Antimicrob Agents Chemother, 1996).
# Tests used:
# [1] = target: Polymerase acidic protein (Influenza A virus (strain A/Hong Kong/1/1968 H3N2)) (UniProt Q91MA9); assay: Upper respiratory tract challenge; format: functional, organism-based; details: Mus musculus
# [2] = target: Polymerase acidic protein (Influenza A virus (A/Puerto Rico/8/1934(H1N1)), UniProt P03433); assay: Inhibition of cap 1 ALMV primed Influenza transcriptase
SMILES,Log10 reduction [1],IC50 [2]
CC(=O)N[C@@H]1[C@@H](NC(=N)N)C=C(C(=O)O)O[C@@]1(C)[C@H](O)[C@H](O)CO,4.3,
O=C(O)/C(O)=C/C(=O)C1(Cc2ccc(Cl)cc2)CCN(Cc2ccc(Cl)cc2)CC1,,540 nM
